From patent US8735409B2, “Quinazoline derivatives” (priority 2009, dated 2014)

Test: Stability in Human Liver Microsomes
Format: in vitro ADME
Conditions: pooled human liver microsomes 0.5 mg/mL protein, 1 mM NADPH, 37° C., N=1; for half-life: both sexes
Procedure: The liver microsomes stability of compounds of Examples 1-4 was compared with that of TOVOK, and the compound of Example 5 with CUDC-101.
The metabolic stability of compounds of the invention was tested using pooled liver microsomes prepared from mixed-gender humans, with 1 mM NADPH. The samples were analyzed using an LTQ-Orbitrap XL mass spectrometer. HRMS was used to determine the peak area response ratio (peak area corresponding to test compound or control divided by that of an analytical internal standard) without running a standard curve. HRMS scan was performed in an appropriate m/z range in order to detect all plausible metabolites
The assay was run with a single incubation (N=1). Incubated test compounds at 37° C. in buffer containing 0.5 mg/mL microsomal protein. Initiated the reaction by adding cofactors, sampling at 0, 10, 20, 30, and 60 minutes, Incubated positive control (5 μM testosterone) in parallel and sampling at 0, 10, and 30 minutes.
The control compound testosterone was run in parallel to verify the enzymatic activity of the microsomes. After the final time point, fluorimetry was used to confirm the addition of NADPH to the reaction mixture. T1/2 of control met the internal acceptance criteria.
• Liquid Chromatography • Column: Thermo BDS Hypersil C18 30×2.0 mm, 3 μm, with guard column • M.P. Buffer: 25 mM ammonium formate buffer, pH 3.5 • Aqueous Reservoir (A): 90% water, 10% buffer • Organic Reservoir (B): 90% acetonitrile, 10% buffer • Flow Rate: 300 μL/minute • Gradient Program:
• Total Run Time: 3.5 minutes • Autosampler: 10 μL Injection Volume • Autosampler Wash: water/methanol/2-propanol: 1/1/1; with 0.2% formic acid • Mass Spectrometer • Instrument: PE SCIEX API 3000 • Interface: Turbo Ionspray • Mode: Multiple Reaction Monitoring • Method: 3.5 minute duration

half-life	SMILES	Percentage remaining 0 min	Percentage remaining 10 min	Percentage remaining 20 min	Percentage remaining 30 min	Percentage remaining 60 min	Half life
	[2H]C1(Oc2cc3ncnc(Nc4ccc(F)c(Cl)c4)c3cc2NC(=O)/C=C/CN(C)C)CCOC1 (stereo not drawn) [Example 3, (E)-N-(4-(3-chloro-4-fluorophenylamino)-7-((3-D)-tetrahydrofuran-3-yloxy)quinazolin-6-yl)-4-(dimethylamino)but-2-enamide]	100%	97%	89%	84%	73%	>1 h
	[2H]C1(Oc2cc3ncnc(Nc4cccc(C#C)c4)c3cc2NC(=O)/C=C/CN(C)C)CCOC1 [Example 4, (E)-4-(dimethylamino)-N-(4-(3-ethynylphenylamino)-7-(3-D-tetrahydrofuran-3-yloxy)quinazolin-6-yl)but-2-enamide]	100%	94%	87%	79%	70%	>1 h
0.333 h	C#Cc1cccc(Nc2ncnc3cc(OC)c(OCCCCCCC(=O)NO)cc23)c1 [CUDC-101, reference compound]	100%	74%	48%	35%	14%	
> 1 h	CN(C)C/C=C/C(=O)Nc1cc2c(Nc3ccc(F)c(Cl)c3)ncnc2cc1O[C@H]1CCOC1 [TOVOK, reference compound]	100%	95%	85%	75%	60%	
	[2H]C([2H])([2H])N(C/C=C/C(=O)Nc1cc2c(Nc3cccc(C#C)c3)ncnc2cc1O[C@H]1CCOC1)C([2H])([2H])[2H] [Example 2, (S,E)-4-(D6-dimethylamino)-N-(4-(3-ethynylphenylamino)-7-(tetrahydrofuran-3-yloxy)quinazolin-6-yl)but-2-enamide]	100%	95%	87%	80%	67%	>1 h
	[2H]C([2H])([2H])N(C/C=C/C(=O)Nc1cc2c(Nc3ccc(F)c(Cl)c3)ncnc2cc1O[C@H]1CCOC1)C([2H])([2H])[2H] [Example 1, (S,E)-N-(4-(3-chloro-4-fluorophenylamino)-7-(tetrahydrofuran-3-yloxy)quinazolin-6-yl)-4-(D6-dimethylamino)but-2-enamide]	100%	97%	90%	85%	75%	>1 h
0.467 h	[2H]C([2H])([2H])Oc1cc2ncnc(Nc3cccc(C#C)c3)c2cc1OCCCCCCC(=O)NO [Example 5, 7-(4-(3-ethynylphenylamino)-7-(D3-methoxy)quinazolin-6-yloxy)-N-hydroxyheptanamide]	100%	85%	68%	48%	25%	
